The conditions of data set [1]: cited from earlier work; for EN (normalized solvent polarity parameter): water and tetramethylsilane as extreme reference solvents; for ET (solvent polarity parameter): solvatochromic absorption of betaine dye.
For data set [2] the following is noted: cited from earlier work.
Data set [3] can be described thus: Solubility of cobalt ion in the combination solvent. The data set is classed as physicochemical. The settings on record: cyclohexanone/water combination solvent. The text has this: The above profound and unexpected attributes (considerable increase of dibasic acid solubility combined with considerable decrease of cobalt ion solubility in the novel combination solvent) are primarily responsible for a clean extraction of the cobalt ion with water from the rest of the reaction mixture, which remains dissolved in the combination solvent of the instant invention.

Read-outs that look alike come from different tables or passages of the source.

For `CC(=O)O` [Acetic acid], the “EN (normalized solvent polarity parameter)” value in data set [1] is 0.648.

As to `C1CCCCC1` [Cyclohexane], in data set [1], the “EN (normalized solvent polarity parameter)” value is 0.006.

Consider `OC1CCCCC1` [Cyclohexanol], for which the “EN (normalized solvent polarity parameter)” value in data set [1] was 0.500.

As to `O=C1CCCCC1` [Cyclohexanone], the “EN (normalized solvent polarity parameter)” value in data set [1] is listed as 0.281. Besides, the “mol % CHxO (solubility of cyclohexanone in water)” value is reported as 1.98% mol % in data set [2] (20 °C); 1.85% mol % in data set [2] (25 °C); 1.73% mol % in data set [2] (30 °C); 1.43% mol % in data set [2] (50 °C); 1.34% mol % in data set [2] (70 °C); 1.44% mol % in data set [2] (90 °C). Further, the “wt % CHxO (solubility of cyclohexanone in water)” value was 10.00% wt % in data set [2] (20 °C); 9.39% wt % in data set [2] (25 °C); 8.83% wt % in data set [2] (30 °C); 7.39% wt % in data set [2] (50 °C); 6.95% wt % in data set [2] (70 °C); 7.44% wt % in data set [2] (90 °C).

With `CCO` [Ethanol], in data set [1], the “EN (normalized solvent polarity parameter)” value was 0.654.

For the compound `CO` [Methanol], the “EN (normalized solvent polarity parameter)” value in data set [1] was 0.762.

Turning to `O` [Water], in data set [1], the “ET (solvent polarity parameter)” value is listed as 63.1 kcal/mol and the “EN (normalized solvent polarity parameter)” value was 1.000.

As to `c1ccc(Oc2ccccc2)cc1` [diphenyl ether], the “ET (solvent polarity parameter)” value in data set [1] is 35.3 kcal/mol.

Take `CCCCCC` [n-Hexane]: in data set [1], the “EN (normalized solvent polarity parameter)” value is given as 0.009.

cobalt ion: the “solubility of the cobalt ion in the novel combination solvent” value in data set [3] was “decreases considerably”.
